In brackets after ≈: the same amount, converted by molar mass.
How the values were obtained:
PBMC = test: cells; conditions: Homo sapiens
Description: Inhibition of LPS-induced TNFalpha production in human PBMC preincubated for 30 mins measured after 3 hrs of LPS stimulation

[1] = Thermodynamic solubility of the compound at pH 6.8; assay type: physicochemical; conditions: buffer, read-out: Therm_solubility
Mus musculus = organism: Mus musculus; test: animal or person; conditions: OF1, po, 1 h, read-out: INH
Description: Inhibition of LPS-induced TNFalpha production in OF1 mouse at 100 mg/kg, po after 1 hr by ELISA

Plasma = test: Plasma concentration in OF1 mouse at 100 mg/kg, po; assay type: ADME, organism-based; parameters: dose 100 mg/kg, route oral; conditions: in vivo
[2] = target: T1, MAP kinase-activated protein kinase 2 (Homo sapiens, UniProt P49137)
[3] = target: T1, MAP kinase-activated protein kinase 2; remark: listed apart in the source
Description: Inhibition of MK2 mediated anisomycin-stimulated hsp27 phosphorylation in human THP-1 cells by fluorometric analysis

T1 sequence (P49137 whole entry): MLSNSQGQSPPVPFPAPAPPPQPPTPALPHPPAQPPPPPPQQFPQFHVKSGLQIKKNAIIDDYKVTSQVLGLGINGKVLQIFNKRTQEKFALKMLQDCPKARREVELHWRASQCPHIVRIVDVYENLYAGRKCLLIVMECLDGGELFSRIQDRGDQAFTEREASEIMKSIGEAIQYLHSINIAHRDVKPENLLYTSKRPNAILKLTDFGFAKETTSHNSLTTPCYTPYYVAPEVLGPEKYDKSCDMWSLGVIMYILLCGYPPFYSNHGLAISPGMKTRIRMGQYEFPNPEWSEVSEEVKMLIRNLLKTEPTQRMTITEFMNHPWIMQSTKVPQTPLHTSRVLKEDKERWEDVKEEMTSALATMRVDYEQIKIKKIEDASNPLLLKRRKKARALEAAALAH

COc1ccc(-c2cc3c(cn2)CCc2c-3[nH]c3c2C(=O)NCC3)cc1
IC50 (PBMC): 100 nM | solubility thermodynamic [1]: < 4 µM

O=C1NC2(CC2)Cc2[nH]c3c(c21)CCc1cnc(-c2cccc(F)c2)cc1-3
inhibition in vivo at 100 mg/kg (Mus musculus): 55% | concentration (Plasma): 15 µM | IC50 (PBMC): 800 nM | solubility thermodynamic [1]: 5 µM (≈ 1.8 µg/mL)

COCCOc1cncc(-c2cc3c(ccc4c5c([nH]c43)CCNC5=O)cn2)c1
IC50 [2]: 10 nM | IC50 (PBMC): 300 nM | solubility thermodynamic [1]: < 4 µM | IC50 [3]: 1500 nM

COc1ccc(-c2ncc3c(n2)-c2[nH]c4c(c2CC3)C(=O)NCC4)cc1
IC50 (PBMC): 900 nM | solubility thermodynamic [1]: < 5 µM

O=C1NCCc2[nH]c3c(c21)CCc1cnc(-c2cccc(F)c2)cc1-3
IC50 (PBMC): 500 nM | solubility thermodynamic [1]: < 4 µM

COCCOc1cncc(-c2cc3c(cn2)CCc2c-3[nH]c3c2C(=O)NCC3)c1
IC50 (PBMC): 400 nM | solubility thermodynamic [1]: 8 µM (≈ 3.12 µg/mL)

O=C1NCCc2[nH]c(-c3ccnc(-c4ccccc4F)c3)cc21
IC50 (PBMC): > 10000 nM | solubility thermodynamic [1]: 337 µM (≈ 104 µg/mL)

O=C1NC2(CC2)Cc2[nH]c3c(c21)CCc1cnc(-c2ccc(OCCN4CCOCC4)cc2)cc1-3
IC50 (PBMC): 200 nM | solubility thermodynamic [1]: < 4 µM

CN1CC2(CNC(=O)c3c2[nH]c2c3CCc3cnc(-c4ccc(F)nc4)nc3-2)C1
IC50 (PBMC): 700 nM | solubility thermodynamic [1]: 173 µM (≈ 67.5 µg/mL)

O=C1NC2(CC2)Cc2[nH]c3c(c21)CCc1cnc(-c2ccccc2F)cc1-3
IC50 (PBMC): 900 nM | solubility thermodynamic [1]: 10 µM (≈ 3.59 µg/mL)

CN1CC2(CNC(=O)c3c2[nH]c2c3CCc3cnc(-c4ccccc4F)nc3-2)C1
IC50 (PBMC): 1600 nM | solubility thermodynamic [1]: 373 µM (≈ 145 µg/mL)

Cn1c2c(c3c1C1(CNC1)CNC3=O)CCc1cnc(-c3ccccc3F)cc1-2
IC50 (PBMC): 1800 nM | solubility thermodynamic [1]: 54 µM (≈ 21 µg/mL)

COc1ccc(-c2cc3c(cn2)CCc2c-3[nH]c3c2C(=O)NCC32CN(C)C2)cc1
inhibition in vivo at 100 mg/kg (Mus musculus): 0% | concentration (Plasma): 0.1 µM | IC50 (PBMC): 60 nM | solubility thermodynamic [1]: 40 µM (≈ 16 µg/mL)

CN1CCC2(CC1)CNC(=O)c1c2[nH]c2c1CCc1cnc(-c3ccccc3F)cc1-2
IC50 (PBMC): 200 nM | solubility thermodynamic [1]: > 1000 µM

COCCOc1cncc(-c2ncc3c(n2)-c2[nH]c4c(c2CC3)C(=O)NCC42CN(C)C2)c1
IC50 (PBMC): 1500 nM

COc1ccc(-c2cc3c(cn2)CCc2c-3[nH]c3c2C(=O)NC2(CC2)C3)cc1
inhibition in vivo at 100 mg/kg (Mus musculus): 81% | concentration (Plasma): 25 µM | IC50 (PBMC): 200 nM | solubility thermodynamic [1]: < 4 µM

O=C1NCC2(CC2)c2[nH]c3c(c21)CCc1cnc(-c2cccc(F)c2)cc1-3
IC50 (PBMC): 900 nM | solubility thermodynamic [1]: < 4 µM

O=C1NCC2(CC2)c2[nH]c3c(c21)CCc1cnc(-c2ccc(F)nc2)cc1-3
inhibition in vivo at 100 mg/kg (Mus musculus): 30% | concentration (Plasma): 1.9 µM | IC50 (PBMC): 700 nM | solubility thermodynamic [1]: < 4 µM

CN1CC2(CNC(=O)c3c2[nH]c2c3CCc3cnc(-c4cccc(F)c4)nc3-2)C1
IC50 (PBMC): 500 nM

O=C1NCCc2[nH]c3c(c21)CCc1cnc(-c2ccccc2F)cc1-3
IC50 (PBMC): 1500 nM | solubility thermodynamic [1]: 11 µM (≈ 3.67 µg/mL)

O=C1NCC2(CNC2)c2[nH]c3c(c21)CCc1cnc(-c2cccc(F)c2)cc1-3
IC50 (PBMC): 200 nM

O=C1NCC2(CNC2)c2[nH]c3c(c21)CCc1cnc(-c2ccccc2F)cc1-3
IC50 (PBMC): 100 nM | solubility thermodynamic [1]: 337 µM (≈ 126 µg/mL)

Source: ChEMBL document CHEMBL1799987, “In vivo and in vitro SAR of tetracyclic MAPKAP-K2 (MK2) inhibitors. Part II” (Bioorg Med Chem Lett, 2010)
